Experiments:
[1] = target: T1, Locusta migratoria tyramine receptor (TyrLoc) (Locusta migratoria, UniProt Q25321); assay: Ca2+ measurements (fura-2) in uninduced MEL-TyrLoc cells; type: cell-based; settings: for antagonism of the Ca2+ increase induced by TA: qualitative, data not shown for part
T1 construct: The coding region of the TyrLoc cDNA was amplified by polymerase chain reaction (PCR) from pVJ12 and pVJ12-IEG; expressed in transfected cells
T1 sequence (Q25321 12-484): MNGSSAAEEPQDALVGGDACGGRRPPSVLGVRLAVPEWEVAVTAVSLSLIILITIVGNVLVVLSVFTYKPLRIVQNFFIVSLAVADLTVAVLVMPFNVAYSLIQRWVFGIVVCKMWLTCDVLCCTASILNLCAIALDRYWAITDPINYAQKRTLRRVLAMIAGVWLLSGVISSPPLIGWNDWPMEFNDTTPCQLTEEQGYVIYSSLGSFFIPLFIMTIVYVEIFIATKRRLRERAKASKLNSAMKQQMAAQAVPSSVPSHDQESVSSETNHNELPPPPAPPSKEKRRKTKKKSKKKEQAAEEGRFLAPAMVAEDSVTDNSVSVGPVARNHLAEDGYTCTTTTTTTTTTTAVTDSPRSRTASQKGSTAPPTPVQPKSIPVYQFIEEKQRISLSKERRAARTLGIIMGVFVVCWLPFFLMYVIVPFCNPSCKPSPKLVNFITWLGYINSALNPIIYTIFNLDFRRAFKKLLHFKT
Description: (§1) Elevations in intracellular Ca^2+ in response to stimulation with ligands of the tyramine receptor were measured as follows. Since MEL cells loose the ability to signal on differentiation, and as receptor expression was readily detectable without induction of the MEL cells, uninduced MEL C88L cells of the invention were used.
(§2) Ca^2+ concentration was measured by using the acetoxymethyl (AM) ester of the fluorescent indicator fura-2 (Grynkiewicz G et al. (1985) J. Biol. Chem. 260 3440–3450). Cells were washed with NCF buffer (135 mM NaCl, 5 mM KCl, 6 mM glucose, 0.62 mM MgCl2.6H2O, 10 mM HEPES, pH 7.4 with 4 mM CaCl2) and resuspended at a concentration of 2.10^6 cells/ml in NCF buffer containing 2 μM fura-2-AM (Molecular Probes). After 1 hour incubation in the dark at 27° C., the cell suspension was subjected to centrifugation at 1200 rpm for 5 minutes, resuspended in an equal volume of NCF buffer and incubated for an additional 30 min in the dark. Aliquots were centrifuged as above and resuspended in 3 ml NCF buffer. Measurements of intracellular calcium were made fluorimetrically in a LS-50B Luminescence Spectrophotometer (Perkin-Elmer) in the presence and absence of the appropriate test chemical. Excitation wavelength alternated between 340 and 380 nm. The fluorescence intensity was monitored at an emission wavelength of 510 nm.

serotonin receptor = assay: β-galactosidase (CRE reporter) assay using serotonin clones of MEL C88L cells
Description: (§6) These cells were then transferred to 96-well microtitre plates a final concentrations of 2×10^5 cells/well and 1×10^6 cells/well. […] 2 replicates/clone/concentrations were set up.
(§7) After incubation for 5 hours at 37° C. in an atmosphere of 10% CO2, a chlorophenol red β-D-galactopyranoside (CPRG) solution was added. The solution comprised 11.4 mg CPRG (Boehringer), 500 μl 10× Z buffer, 75 μl 20% SDS, 5 ml H2O and 7 μl ercaptoethanol. 10× Z buffer consists of 0.47M Na2HPO4(2H2O), 0.4M NaH2PO4(2H2O), 0.1M KCI, 10 mM MgSO4(7H2O), adjusted to pH 7.0 with NaOH solution.

[2] = test system: Untransformed MEL-C88L cells; assay: cAMP measurements (Scintillation Proximity Assay) in untransformed MEL-C88L cells; type: cell-based, Murine; settings: 200 μM IBMX, FIG. 5
Description: (§3) The effect of TA on the cAMP level of the transformed and untransformed cells was investigated. MEL-C88L and MEL-TyrLoc cells were seeded in 6-well plates to a density of 8.10^5 cells/well and allowed to attach. The cell medium was removed and, in different wells, replaced with different NCF buffer solutions as follows: • (i) NCF+1 μM tyramine (TA), • (ii) NCF+10 μM forskolin (Fsk), • (iii) NCF+10 μM Fsk+1 nM to 10 μM TA. where NCF comprised 135 mM NaCl, 5 mM KCl, 6 mM glucose, 0.62 mM MgCl2, 10 mM Hepes pH 7.4 4 mM CaCl2.
(§4) All solutions contained 200 μM […] (IBMX) in order to inhibit cAMP phosphodiesterase. In each study, triplicate wells were incubated with the same solution at 37° C. for exactly 30 min.
(§5) In order to extract the cAMP, 100% ice-cold ethanol was added to each well to a final concentration of 65%. After 5 min incubation at room temperature, the solution was removed from the wells which were then rinsed with 65% ethanol. The eluates from the same well were then pooled together and evaporated using a speedvac. cAMP was then measured using the Scintillation Proximity Assay (Amersham), according to the manufacturers recommended procedure. This experiment was done in triplicate.

[3] = target: T1, Locusta migratoria tyramine receptor (TyrLoc); assay: cAMP measurements (Scintillation Proximity Assay) in MEL-TyrLoc cells; type: cell-based; settings: for antagonism of the effect of TA on cAMP: 10 μM Fsk + 0.1 μM TA, yohimbine 100 nM to 1 nM, mianserin 10 nM, chlorpromazine 10 nM; for inhibition of forskolin-induced increase of cAMP: 10 μM Fsk + 1 nM to 10 μM TA, FIG. 6
Description: as §3
For the use of other ligands than TA, the solutions were: • (iv) NCF+10 μM Fsk+1 μM OA, • (v) NCF+10 μM Fsk+0.1 μM TA+100 nM to 1 nM yohimbine, • (vi) NCF+10 μM Fsk+0.1 μM TA+10 nM mianserin; and • (vii) NCF+10 μM Fsk+0.1 μM TA+10 nM chlorpromazine.
as §4, §5

[4] = target: Dopamine Receptor (D-Dop1) (Drosophila melanogaster, UniProt P41596); settings: 10 μM dopamine, Clones C and 2, 1×10^6 cells/well, FIG. 7
Description: as §6, §7

[5] = test system: Untransformed MEL-C88L cells; assay: Ca2+ measurements (fura-2) in untransformed MEL-C88L control cells; type: cell-based, Murine; settings: concentrations as high as 100 μM TA
Description: as §1, §2

[6] = yohimbine 0.1, 1 and 2.5 μM, FIG. 4

Chain of Dopamine Receptor (D-Dop1) (P41596 20-511): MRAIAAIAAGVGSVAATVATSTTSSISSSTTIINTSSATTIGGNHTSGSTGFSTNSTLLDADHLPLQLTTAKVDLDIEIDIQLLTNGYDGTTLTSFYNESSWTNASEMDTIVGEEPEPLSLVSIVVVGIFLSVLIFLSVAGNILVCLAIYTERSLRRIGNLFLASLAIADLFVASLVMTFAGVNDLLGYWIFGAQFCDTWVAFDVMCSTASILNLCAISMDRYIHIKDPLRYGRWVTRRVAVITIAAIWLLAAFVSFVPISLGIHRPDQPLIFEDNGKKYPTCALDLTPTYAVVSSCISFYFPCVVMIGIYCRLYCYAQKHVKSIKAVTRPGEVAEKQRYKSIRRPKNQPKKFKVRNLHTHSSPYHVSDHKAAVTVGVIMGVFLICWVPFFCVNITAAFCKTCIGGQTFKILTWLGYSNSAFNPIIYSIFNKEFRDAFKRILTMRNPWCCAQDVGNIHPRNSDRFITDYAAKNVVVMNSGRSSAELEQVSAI

C[C@H](CCC(=O)O)C[C@H](C)C[C@H](C)C(=O)/C=C(\O)[C@H](C)C[C@H](C)C/C=C/[C@@H](C)[C@@H](O)[C@@H](C)[C@@H](O)C[C@@H]1CC[C@@](C)([C@H]2CC[C@@](C)([C@@H](C)O)O2)O1 [ionomycin]
intracellular Ca2+ concentration after ionophore ([1]; 2 μM ionomycin, check of fura-2 loading): large increase

NCCc1c[nH]c2ccc(O)cc12 [serotonin]
forskolin stimulated cAMP in the presence of serotonin (serotonin receptor; forskolin and serotonin): decrease in forskolin stimulated cAMP
cyclic AMP signal with serotonin alone (serotonin receptor; serotonin alone): no effect

NCC(O)c1ccc(O)cc1 (centres unmarked) [OA, octopamine]
Ca2+ increase compared with TA ([1]; OA 0.5 μM versus TA 10 nM (50 times higher concentration), FIG. 3): much lesser extent than TA

C=C[C@@]1(C)CC(=O)[C@]2(O)[C@@]3(C)[C@@H](O)CCC(C)(C)[C@@H]3[C@H](O)[C@H](OC(C)=O)[C@@]2(C)O1 [Forskolin, forskolin]
increase of cAMP level ([2]; 10 μM forskolin with or without TA): more than 6 times

CN(C)CCCN1c2ccccc2Sc2ccc(Cl)cc21 [Chlorpromazine]
antagonism of the effect of TA on cAMP [3]: antagonistic effects
antagonism of the Ca2+ increase induced by TA [1]: clearly inhibited

c1ccc2c(CC3=NCCN3)cccc2c1 [naphazoline]
antagonism of the Ca2+ increase induced by TA [1]: weak antagonists

CN1CCN2c3ccccc3Cc3ccccc3C2C1 (centres unmarked) [mianserin]
antagonism of the effect of TA on cAMP [3]: antagonistic effects
antagonism of the Ca2+ increase induced by TA [1]: clearly inhibited

COC(=O)[C@@H]1[C@H]2C[C@H]3c4[nH]c5ccccc5c4CCN3C[C@@H]2CC[C@@H]1O [Yohimbine]
antagonism of the effect of TA on cAMP [3]: inhibited the effect of TA in a dose dependent manner
antagonism of the Ca2+ increase induced by TA [1]: strongest antagonist
antagonism of the Ca2+ increase induced by TA ([1]; listed as yohimbine): better receptor antagonist than chlorpromazine and mianserin
inhibition of the Ca2+ response to 0.5 μM TA [1, 6]: concentration-dependent inhibition
inhibition of the Ca2+ response to 5 μM TA [1, 6]: could not inhibit
inhibition of the Ca2+ response to 0.5 μM TA ([1]; yohimbine 0.1, 1 and 2.5 μM, FIG. 4, listed as yohimbin): inhibition

CCN(CC)CCNC(=O)c1cc(Cl)c(N)cc1OC [metaclopramide]
effect on basal Ca2+ concentrations or on the response of the cells to TA ([1]; at concentrations below 20 μM): no detectable effect

NCCc1ccc(O)c(O)c1 [dopamine]
absorbance at 570 nm (β-galactosidase, indicating cyclic AMP) with dopamine [4]: increase in absorbance at 570 nm

NCCc1ccc(O)cc1 [TA, tyramine]
Ca2+ response in untransformed cells [5]: no response
effect on cAMP level in untransformed cells ([2]; 1 μM TA, 30 min): did not result in any effect
inhibition of forskolin-induced increase of cAMP ([3]; 200 μM IBMX): significantly inhibits
inhibition of forskolin-induced increase of cAMP ([3]; 200 μM IBMX, listed as tyramine): inhibition
TA concentration giving maximal response (cAMP inhibition) ([3]; 10 μM Fsk, 200 μM IBMX): 1 µM
TA concentration giving minimal response (cAMP inhibition) ([3]; 10 μM Fsk, 200 μM IBMX): 1 nM
decrease in cAMP production with 1 μM TA when compared to 1 μM OA ([3]; 10 μM Fsk, 200 μM IBMX): 4 fold
TA concentration giving maximal Ca2+ response ([1]; MEL-TyrLoc clone, FIG. 2): 1 µM
Ca2+ increase after addition of TA ([1]; MEL-TyrLoc clone, dose-response 0.01 μM upwards, FIG. 2): clear transient increase in Ca^2+
activating concentrations lower than OA ([1]; TA versus OA as agonist of TyrLoc in MEL-TyrLoc cells (summary of Ca2+ and cAMP results)): 3–4 orders of magnitude

c1ccc(CC2=NCCN2)cc1 [tolazoline]
antagonism of the Ca2+ increase induced by TA [1]: weak antagonists

— patent publication US7033784B1, “Method of producing an erythroid cell which is undifferentiated yet capable of expressing a heterologous protein” (Syngenta Limited, priority 1999, dated 2006)
